Measured values published in patent US20130143866A1, “ANTICANCER COMBINATION TREATMENTS” (priority 2011, published 2013).

Legend:
+SA mammary tumor cells = assay: HGF-dependent +SA mammary tumor cell growth, viable cell number by MTT colorimetric assay; format: cell-based, mice; conditions: for HGF-dependent +SA cell growth: vs vehicle-treated control; for +SA tumor cell growth: summary statement, HGF-dependent, in a dose-responsive manner
Method: +SA mammary tumor cells were used for the examples presented herein. […] In addition, +SA cells can form adenocarcinomas that metastasize to the lungs when injected into the mammary gland fat pad of syngeneic female mice. +SA cells were maintained in serum-free defined media containing 10 ng/mL Hepatocyte growth factor (HGF) as the mitogen, Dulbecco's Modified Eagle's Medium (DMEM)/F12 supplemented with 5 mg/mL bovine serum albumin (BSA), 10 μg/mL transferrin, 100 U/mL soybean trypsin inhibitor, 100 U/mL penicillin, 0.1 mg/mL streptomycin and 10 μg/mL insulin at 37° C. in an environment of 95% air and 5% CO2 in humidified incubator. For subculturing, cells were rinsed with sterile Ca^2+ and Mg^2+-free phosphate buffered saline (PBS) and incubated with 0.05% trypsin containing 0.025% EDTA in PBS for 5 min at 37° C. The released cells were centrifuged, resuspended in serum-free media and counted using hemocytometer.
γ-tocotrienol was prepared for the tests of this example by suspending it in a solution of sterile 10% BSA. An appropriate amount of γ-tocotrienol was dissolved in 100 μL of absolute ethyl alcohol and then added to a small volume of sterile 10% BSA in water and incubated overnight at 37° C. This stock solution was used to prepare various concentrations of the treatment media. Ethanol was added to all treatment groups in a given experiment such that the final concentration of ethanol never exceeded 0.1%. Stock solution of the Met inhibitor, SU11274 was prepared in DMSO and DMSO was added to all treatment media such that the final concentration was same in all treatment groups and never exceeded a concentration of 0.1%.
+SA cells were initially seeded at a density of 5×10^4 cells/well (6 replicates/group) in 24-well plates in serum-free defined media containing 10 ng/mL HGF as mitogen and allowed to attach overnight. For growth studies, +SA cells were maintained in serum-free defined media containing various doses of HGF over a 3-day culture period. In the antiproliferative experiments, cells were exposed to respective experimental treatments containing various concentrations of SU11274 or γ-tocotrienol alone or in combination for three days. On the fourth day, cells were divided into different treatment groups and treated with various concentrations of SU11274 or γ-tocotrienol alone or in combination for 24 hours. At the end of the treatment exposure period, the viable +SA cell number was determined by 3-(4,5-dimethylthiazol-2yl)-2,5-diphenyl tetrazolium bromide (MTT) colorimetric assay. Control and treatment media in various treatment groups in 24-well plates were replaced with fresh media containing 0.41 mg/ml MTT. After 4-h incubation period, the media was removed and MTT crystals were dissolved in isopropanol (1 ml/well), and the optical density of each sample was measured at 570 nm on a microplate reader (SpectraCount, Packard BioScience Company). The number of cells/well was calculated against a standard curve prepared by plating various concentrations of cells, as determined by hemocytometer, at the beginning of each experiment.
Vertical bars indicate mean viable cell number±SEM for six replicates in each treatment group. Differences among various treatment groups in +SA cell growth studies were determined by the analysis of variance (ANOVA) followed by Dunnett's t test. A difference of P<0.05 was considered statistically significant as compared to the vehicle-treated control.
Effects of various doses of SU11274, a specific Met Receptor Tyrosine Kinase inhibitor, or γ-tocotrienol on HGF-dependent +SA mammary tumor cell growth after a 3-day culture period are shown in FIG. 2. […] In the present example, +SA cells were initially plated at a density of 5×10^4 cells/well (6 replicates/group) in 24-well plates and exposed to various doses of SU11274 or γ-tocotrienol in the presence of 10 ng/mL HGF throughout a 3-day culture period. Viable cell number was determined using the MTT colorimetric assay. […]

Met = molecular target: T1, Met (Mus musculus, UniProt P16056); assay: Western blot analysis of total and phosphorylated (active) Met levels in HGF-stimulated +SA cells; format: cell-based, mice; conditions: for HGF-dependent Met tyrosine phosphorylation: summary statement, in a dose-responsive manner
T1 construct: whole cell lysates were prepared and then subjected to polyacrylamide gel electrophoresis and Western blot analysis for total and phosphorylated Met levels; endogenous in cells; host or cells: +SA mammary tumor cells
Method: For Western blot analysis, +SA cells were initially plated at a density of 1×10^6 cells/100-mm culture dish, allowed to attach overnight and then incubated in the respective control or treatment media. At the end of treatment period, cells were isolated with trypsin, washed with PBS, and then whole cell lysates were prepared in a Laemmle buffer. Protein concentration in each sample was determined using a protein assay kit (Bio-Rad protein assay kit, Bio Rad, Hercules, Calif., USA). Equal amount of protein (30-50 μg/lane) of each sample was subjected to electrophoresis through 7.5%-15% SDS-polyacrylamide minigels. Minigels within a given treatment were run simultaneously using AccuPower model 500 power supply unit (VWR, Suwanee, Ga., USA). Each gel was then equilibrated in transfer buffer and transblotted at 30 V for 12-16 hours at 4° C. onto a polyvinylidene fluoride (PVDF) membrane (PerkinElmer Lifesciences, Wellesley, Mass., USA) in a Trans-Blot Cell (Bio-Rad Laboratories, Hercules, Calif.) according to the method of Towbin. These PVDF membranes were then blocked with 2% BSA in 10 mM Tris-HCl containing 50 mM NaCl and 0.1% Tween 20, pH 7.4 (TBST) and then, incubated with specific primary antibodies against Met, phospho-Met, cleaved caspase-3, cleaved PARP, and α-tubulin diluted 1:1000 to 1:5000 in 2% BSA in TBST for 2 hours at room temperature or overnight at 4° C. Membranes were then washed 5 times with TBST and incubated with respective horseradish […]-conjugated secondary antibody diluted 1:3000 to 1:5000 in 2% BSA in TBST for 1 hour at room temperature followed by rinsing with TBST for 5 times. Blots were then visualized by chemiluminescence. (Pierce, Rockford, Ill., USA). Images of protein bands from all treatment groups within a given experiment were acquired using Kodak Gel Logic 1500 Imaging System (Carestream Health Inc, New Haven, Conn., USA). The visualization of α-tubulin was used to ensure equal sample loading in each lane.
+SA cells were plated at a density of 1×10^6 cells/100 mm culture dish. Cells were then incubated with serum-free media containing vehicle (control), 5.5 μM SU11274 or 4 μM γ-tocotrienol and 10 ng/mL HGF as the mitogen for a 3-day culture period. Following treatment exposure, cells were incubated in mitogen-free media overnight. Afterwards, cells were stimulated with 100 ng/mL HGF for 30 min Cells incubated in mitogen-free media were used as untreated controls. Following mitogen exposure, whole cell lysates were prepared and then subjected to polyacrylamide gel electrophoresis and Western blot analysis for total and phosphorylated Met levels. α-Tubulin was visualized to ensure equal sample loading in each lane. Each Western blot is a representative image of the data obtained for experiments that were repeated at least three times.
The +SA cells were plated at a density of 1×10^6 cells/100 mm culture dish. Cells were then incubated with serum-free media containing vehicle (control) or 4 μM γ-tocotrienol, and 10 ng/mL HGF as a mitogen. Cells were collected at various times during the next 72-h period. Following treatment exposure at each time point, cells were incubated in mitogen-free media overnight. Afterwards, cells were stimulated with 100 ng/mL HGF for 30 min Cells incubated with mitogen-free media were used as untreated controls. Following mitogen exposure, whole cell lysates were prepared and then subjected to polyacrylamide gel electrophoresis and Western blot analysis for total and phosphorylated (active) Met receptor levels. α-Tubulin was visualized to ensure equal sample loading in each lane. Western blots presented in FIG. 4 are representative of the data obtained for experiments that were repeated at least three times.
Cells were then incubated with serum-free media containing vehicle (control), 3 μM SU11274, 2 μM γ-tocotrienol or the combination of 3 μM SU11274 and 2 μM γ-tocotrienol, and 10 ng/mL HGF as a mitogen for a 3-day culture period. […]

[1] = 5.5 μM SU11274, 3-day culture, then 100 ng/mL HGF for 30 min, vs vehicle-treated control
[2] = 4 μM γ-tocotrienol, 10 ng/mL HGF, time course over 72 h, vs vehicle-treated control

T1 sequence (P16056 25-1379): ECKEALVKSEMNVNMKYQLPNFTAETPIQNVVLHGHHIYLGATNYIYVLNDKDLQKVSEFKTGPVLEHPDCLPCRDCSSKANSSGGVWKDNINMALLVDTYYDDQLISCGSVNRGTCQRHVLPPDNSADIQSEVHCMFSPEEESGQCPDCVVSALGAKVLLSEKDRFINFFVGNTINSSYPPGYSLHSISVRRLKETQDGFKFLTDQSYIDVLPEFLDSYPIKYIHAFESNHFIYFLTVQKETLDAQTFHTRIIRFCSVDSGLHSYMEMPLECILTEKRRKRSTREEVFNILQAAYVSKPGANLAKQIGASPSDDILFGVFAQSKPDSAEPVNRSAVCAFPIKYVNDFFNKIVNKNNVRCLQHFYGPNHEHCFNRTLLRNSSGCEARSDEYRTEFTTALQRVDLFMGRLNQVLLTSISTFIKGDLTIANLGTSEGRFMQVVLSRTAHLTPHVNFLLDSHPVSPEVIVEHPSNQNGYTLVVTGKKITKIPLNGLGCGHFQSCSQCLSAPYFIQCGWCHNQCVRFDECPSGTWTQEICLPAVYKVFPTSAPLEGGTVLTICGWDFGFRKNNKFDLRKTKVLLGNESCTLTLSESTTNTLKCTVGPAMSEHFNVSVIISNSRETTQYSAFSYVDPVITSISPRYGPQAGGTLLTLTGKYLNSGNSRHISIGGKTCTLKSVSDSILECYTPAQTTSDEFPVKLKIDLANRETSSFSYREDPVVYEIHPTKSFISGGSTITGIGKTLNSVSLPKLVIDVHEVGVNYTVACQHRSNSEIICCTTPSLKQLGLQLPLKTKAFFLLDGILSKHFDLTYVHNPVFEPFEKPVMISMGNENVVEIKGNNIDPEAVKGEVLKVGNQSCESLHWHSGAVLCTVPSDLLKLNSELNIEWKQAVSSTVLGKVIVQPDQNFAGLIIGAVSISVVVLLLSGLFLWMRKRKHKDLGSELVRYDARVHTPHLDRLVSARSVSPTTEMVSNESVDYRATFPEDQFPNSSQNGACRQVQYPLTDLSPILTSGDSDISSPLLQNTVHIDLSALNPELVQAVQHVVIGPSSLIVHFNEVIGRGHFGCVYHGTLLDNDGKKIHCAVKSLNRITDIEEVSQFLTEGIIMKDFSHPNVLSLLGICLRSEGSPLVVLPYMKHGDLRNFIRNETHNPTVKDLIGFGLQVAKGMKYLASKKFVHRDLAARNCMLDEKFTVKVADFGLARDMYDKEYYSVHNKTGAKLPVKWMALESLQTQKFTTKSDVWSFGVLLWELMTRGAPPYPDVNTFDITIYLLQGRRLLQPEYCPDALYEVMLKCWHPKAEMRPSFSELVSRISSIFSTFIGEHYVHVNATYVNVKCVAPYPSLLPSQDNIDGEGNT

Molecule | HGF-dependent +SA cell growth (+SA mammary tumor cells; 4.5-5.5 μM SU11274, 10 ng/mL HGF, 3-day culture, P<0.05) | HGF-dependent +SA cell growth (+SA mammary tumor cells; subeffective dose 3 μM SU11274 alone, 10 ng/mL HGF, 3-day culture) | +SA tumor cell growth (+SA mammary tumor cells) | HGF-dependent Met tyrosine phosphorylation (activation) (Met; [1]) | total intracellular levels of Met receptors (Met; [1]) | HGF-dependent Met tyrosine phosphorylation (Met) | HGF-dependent +SA cell growth (+SA mammary tumor cells; 4 μM γ-tocotrienol, 10 ng/mL HGF, 3-day culture, P<0.05) | HGF-dependent +SA cell growth (+SA mammary tumor cells; subeffective dose 2 μM γ-tocotrienol alone, 10 ng/mL HGF, 3-day culture) | culture exposure time at which reduction in total levels of Met protein was maximal (Met; [2]) [days] | treatment exposure time at which reduction in total levels of Met protein started (Met; [2]) [h] | level of total Met protein (Met; 4 μM γ-tocotrienol, 3-day culture, then 100 ng/mL HGF for 30 min) | HGF-induced Met phosphorylation (Met; 4 μM γ-tocotrienol, 3-day culture, then 100 ng/mL HGF for 30 min, mirrors loss of Met expression) | growth of neoplastic +SA mammary epithelial cells (viable cell number) (+SA mammary tumor cells; stimulation with 1-10 ng/mL HGF, 3-day culture, dose-responsive, vs mitogen-free control media, P<0.05)
Cc1[nH]c(/C=C2\C(=O)Nc3ccc(S(=O)(=O)N(C)c4cccc(Cl)c4)cc32)c(C)c1C(=O)N1CCN(C)CC1 [SU11274, reference compound] | significantly inhibited | no effect | inhibited | large relative reduction | no effect | inhibited |  |  |  |  |  |  | 
CC(C)=CCC/C(C)=C/CC/C(C)=C/CC[C@]1(C)CCc2cc(O)c(C)c(C)c2O1 [γ-tocotrienol] |  |  | inhibited |  |  | inhibited | significantly inhibited | no effect | 3 | 24 | significant reduction | loss | 
HGF: Hepatocyte growth factor (HGF), the mitogen, purchased from PeproTech Inc. |  |  |  |  |  |  |  |  |  |  |  |  | significantly increased
